Laboratory results taken from patent US10098904B2, “Zidovudine combination therapies for treating microbial infections” (HELPERBY THERAPEUTICS LIMITED, priority 2014, dated 2018).

What was measured:
NDM-1 BAA2469 E. coli = format: in vivo; details: mice, intravenous; rifampicin 10 mg/kg, colistin 20 mg/kg, HT0120663 5 mg/kg; singly
[1] = system: NDM-1 BAA2470 K. pneumoniae; format: in vivo; details: mice, intravenous; rifampicin 10 mg/kg, colistin 20 mg/kg, HT0120663 5 mg/kg; singly
enterobacteria = details: on some enterobacteria; cited from earlier work

Row | Compound | in vivo activity of drug alone (NDM-1 BAA2469 E. coli) | in vivo activity of drug alone [1] | antibacterial effect (enterobacteria)
1 | Colistin | no in vivo activity | no in vivo activity | –
2 | Cc1cn([C@H]2C[C@H](N=[N+]=[N-])[C@@H](CO)O2)c(=O)[nH]c1=O [HT0120663, Zidovudine] | no in vivo activity | no in vivo activity | bactericidal effect
